Laboratory results reported in ChEMBL document CHEMBL1201862, “PubChem BioAssay data set” (2004).
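In this assay, cells in 96-well plates receive the compound at five concentrations for 48 hours. Endpoints are linearly interpolated between the surrounding concentrations. Abbreviation: GI50, concentration required for 50% inhibition of growth.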 Calls of active or inactive are those of the source. Cut-off read from the data, not from the text of the source: active = GI50 up to about 1.1 µM and inactive = higher.

Assays:
Experiment in all cases: NCI-60 cell line screen, 48 h
NCI/ADR-RES = system: NCI/ADR-RES
BT-549 = system: BT-549
SF-539 = system: SF-539
IGROV-1 = system: IGROV-1
SR = system: SR
DU-145 = system: DU-145
MDA-N = system: MDA-N
SF-295 = system: SF-295
MDA-MB-435 = system: MDA-MB-435
SNB-75 = system: SNB-75
NCI-H23 = system: NCI-H23
NCI-H226 = system: NCI-H226
UACC-62 = system: UACC-62
MCF7 = system: MCF7
A498 = system: A498
OVCAR-3 = system: OVCAR-3
HL-60 = system: HL-60
Malme-3M = system: Malme-3M
LOX IMVI = system: LOX IMVI
K562 = system: K562

Measured: GI50

C=C1C[C@@H](O)[C@@H](Br)C(C)(C)[C@]12CCC(C)(Cl)C(Br)C2 (stereo not given in full)
inactive: NCI/ADR-RES 21.4 µM | BT-549 35.5 µM | SF-539 16.8 µM | IGROV-1 7.93 µM | SR 40.8 µM | DU-145 62.4 µM | MDA-N 25.5 µM | SF-295 30.6 µM | MDA-MB-435 23.9 µM | SNB-75 18.9 µM | NCI-H23 21.1 µM | NCI-H226 20.9 µM | UACC-62 40.5 µM | MCF7 25.1 µM | A498 > 46.9 µM | OVCAR-3 15.7 µM | HL-60 25.6 µM | Malme-3M 22 µM | LOX IMVI 21.3 µM | K562 53.5 µM

C#CCOCC12C=CC(O1)C1C(=O)OCC12 (stereo not given)
inactive: NCI/ADR-RES > 100 µM | BT-549 > 100 µM | SF-539 > 100 µM | IGROV-1 > 100 µM | SR > 100 µM | DU-145 > 100 µM | MDA-N > 100 µM | SF-295 > 100 µM | MDA-MB-435 > 100 µM | SNB-75 > 100 µM | NCI-H23 > 100 µM | NCI-H226 > 100 µM | UACC-62 > 100 µM | MCF7 > 100 µM | A498 > 100 µM | OVCAR-3 > 100 µM | HL-60 > 100 µM | Malme-3M > 100 µM | LOX IMVI > 100 µM | K562 > 100 µM

Cn1c(=O)cc(NNc2ccccc2)[nH]c1=O
inactive: NCI/ADR-RES > 100 µM | BT-549 > 100 µM | SF-539 > 100 µM | IGROV-1 25.4 µM | SR 10.7 µM | DU-145 54.2 µM | MDA-N > 100 µM | SF-295 > 100 µM | MDA-MB-435 28.2 µM | SNB-75 > 100 µM | NCI-H23 > 100 µM | NCI-H226 > 100 µM | UACC-62 59.4 µM | MCF7 1.78 µM | A498 > 100 µM | OVCAR-3 16.7 µM | HL-60 26.7 µM | Malme-3M 19.9 µM | LOX IMVI 14.9 µM | K562 38.2 µM
